In patent US5262417A, “Antibacterial quinolone compounds” (The Upjohn Company, priority 1991, dated 1993):
In brackets after ≈: the same amount, converted by molar mass. Several values for one entry are separate records, joined by “and”; a condition that tells them apart may be missing. Equal entries are not always repeated. Where two headings read alike, the source gives them in different places.

How the values were obtained:
Experiment in all cases: Minimum inhibitory concentration (MIC) by agar dilution
Format in all cases: cell-based
Pseudomonas aeruginosa = conditions: for MIC: Pseudomonas aeruginosa
Outline: (§1)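 First, test compounds are diluted serially into molten MHA held at 47° C. Next, the agar is poured and left to set. Finally, overnight 35° C cultures, adjusted to 0.5 McFarland in TSB and diluted 1:20, are spotted onto the plates.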

[1] = system: Staphylococcus epidermidis; conditions: 20 h
Outline: as §1

Serratia marcescens = conditions: 20 h, read-out: MINIMUM INHIBITORY CONCENTRATION
Outline: as §1

Escherichia coli = conditions: for MIC: Escherichia coli
Outline: as §1

O=C(O)c1cn(C2CC2)c2cc(N3CCNCC3)c(F)cc2c1=O [Ciprofloxacin, reference compound]
MINIMUM INHIBITORY CONCENTRATION (Pseudomonas aeruginosa; Cult No. 9191, MHA): 0.25 mcg per ml and 0.125 mcg per ml
MIC (Pseudomonas aeruginosa; 20 h, read-out: MINIMUM INHIBITORY CONCENTRATION, Cult No. 6676, MHA): 0.5 µg/mL (≈ 1.51 µM)
MIC (Pseudomonas aeruginosa; 20 h, read-out: MINIMUM INHIBITORY CONCENTRATION, Cult No. 9191, MHA): 0.25 µg/mL (≈ 0.754 µM)
MIC (Pseudomonas aeruginosa; 20 h, read-out: MINIMUM INHIBITORY CONCENTRATION, Cult No. 12120, MHA): 0.125 µg/mL (≈ 0.377 µM)
MIC (Pseudomonas aeruginosa; UC6676, 20 h, read-out: Minimum Inhibitory Concentration, Ps. aeruginosa UC 6676, Table CI): 0.5 µg/mL (≈ 1.51 µM)
MIC (Pseudomonas aeruginosa; UC9191, 20 h, read-out: Minimum Inhibitory Concentration, Ps. aeruginosa UC 9191, Table CI): 0.125 µg/mL (≈ 0.377 µM)
MIC (Pseudomonas aeruginosa; UC12120, 20 h, read-out: Minimum Inhibitory Concentration, Ps. aeruginosa UC 12120, Table CI): 0.125 µg/mL (≈ 0.377 µM)
MIC ([1]; read-out: MINIMUM INHIBITORY CONCENTRATION): 0.125 µg/mL (≈ 0.377 µM)
MIC ([1]; read-out: Minimum Inhibitory Concentration): 0.06 µg/mL (≈ 0.181 µM)
MIC (Serratia marcescens): 0.06 µg/mL (≈ 0.181 µM)
MINIMUM INHIBITORY CONCENTRATION (Escherichia coli; Cult No. 9855, MHA): 0.015 mcg per ml and 0.03 mcg per ml
MINIMUM INHIBITORY CONCENTRATION (Escherichia coli; Cult No. 9952, MHA): 0.015 mcg per ml and < 0.008 mcg per ml
MIC (Escherichia coli; 20 h, read-out: MINIMUM INHIBITORY CONCENTRATION, Cult No. 6674, MHA): 0.015 µg/mL (≈ 0.0453 µM)
MIC (Escherichia coli; 20 h, read-out: MINIMUM INHIBITORY CONCENTRATION, Cult No. 9451, MHA): 0.015 µg/mL (≈ 0.0453 µM)
MIC (Escherichia coli; 20 h, read-out: MINIMUM INHIBITORY CONCENTRATION, Cult No. 9855, MHA): 0.015 µg/mL (≈ 0.0453 µM)
MIC (Escherichia coli; 20 h, read-out: MINIMUM INHIBITORY CONCENTRATION, Cult No. 9952, MHA): 0.015 µg/mL (≈ 0.0453 µM)
MIC (Escherichia coli; UC6674, 20 h, E. coli UC 6674, Table CI, read-out: Minimum Inhibitory Concentration): 0.015 µg/mL (≈ 0.0453 µM)
MIC (Escherichia coli; UC9451, 20 h, E. coli UC 9451, Table CI, read-out: Minimum Inhibitory Concentration): 0.015 µg/mL (≈ 0.0453 µM)
MIC (Escherichia coli; UC9855, 20 h, E. coli UC 9855, Table CI, read-out: Minimum Inhibitory Concentration): 0.015 µg/mL (≈ 0.0453 µM)
MIC (Escherichia coli; UC9952, 20 h, E. coli UC 9952, Table CI, read-out: Minimum Inhibitory Concentration): < 0.008 µg/mL
